The record followed here is ChEMBL document CHEMBL3044953, “Effect of nitrogen insertion on the antitussive properties of menthol and camphor” (Med Chem Res, 2012).

The structures appear in SMILES notation. Active and inactive are the calls of the source. No cut-off for these calls is given here.

Series [1] is filed under the species Cavia porcellus. Briefly: Antitussive activity against crtric acid-induced cough in Cavia porcellus (guinea pig) model assessed as reduction in cough response at 15 to 60 ug/ml for 5 min through aerosol prior to exposure of aerosolized citric acid for 10 min. The format is functional, organism-based.
The species entered for series [2] is Cavia porcellus. Put plainly: Antitussive activity against crtric acid-induced cough in Cavia porcellus (guinea pig) model assessed as increase in cough latency at 30 to 60 ug/ml for 5 min through aerosol prior to exposure of aerosolized citric acid for 10 min. The format is functional, organism-based.
The species named for series [3] is Cavia porcellus. Briefly: Toxicity in Cavia porcellus (guinea pig) assessed as adverse behavior at 15 to 60 ug/ml through aerosol. Format: organism-based. The following applies: in vivo, inhaled_or_intranasal.
For series [4], the species on record is Cavia porcellus. Briefly: Toxicity in Cavia porcellus (guinea pig) assessed as irritation at 15 to 60 ug/ml through aerosol. Format: organism-based. Particulars: in vivo, inhaled_or_intranasal.
For series [5], the species on record is Cavia porcellus. Put plainly: Antitussive activity against crtric acid-induced cough in Cavia porcellus (guinea pig) model assessed as increase in cough latency at 15 to 60 ug/ml for 5 min through aerosol prior to exposure of aerosolized citric acid for 10 min. Format: functional, organism-based.
The species entered for series [6] is Cavia porcellus. Put plainly: Toxicity in Cavia porcellus (guinea pig) assessed as adverse behavior at 125 to 500 ug/ml through aerosol. Format: organism-based. Particulars: in vivo, inhaled_or_intranasal.
Series [7] is filed under the species Cavia porcellus. Briefly: Toxicity in Cavia porcellus (guinea pig) assessed as irritation at 125 to 500 ug/ml through aerosol. The format is organism-based. The following applies: in vivo, inhaled_or_intranasal.
The species entered for series [8] is Cavia porcellus. Briefly: Antitussive activity against crtric acid-induced cough in Cavia porcellus (guinea pig) model assessed as reduction in cough response at 125 to 500 ug/ml for 5 min through aerosol prior to exposure of aerosolized citric acid for 10 min. The format is functional, organism-based.
The species entered for series [9] is Cavia porcellus. Briefly: Antitussive activity against crtric acid-induced cough in Cavia porcellus (guinea pig) model assessed as increase in cough latency at 250 to 500 ug/ml for 5 min through aerosol prior to exposure of aerosolized citric acid for 10 min. The format is functional, organism-based.
Series [10] is filed under the species Cavia porcellus. Put plainly: Antitussive activity against crtric acid-induced cough in Cavia porcellus (guinea pig) model assessed as cough latency at 125 ug/ml for 5 min through aerosol prior to exposure of aerosolized citric acid for 10 min. The format is functional, organism-based.
Series [11] is filed under the species Cavia porcellus. Put plainly: Antitussive activity against crtric acid-induced cough in Cavia porcellus (guinea pig) model assessed as reduction in cough response at 250 to 500 ug/ml for 5 min through aerosol prior to exposure of aerosolized citric acid for 10 min. The format is functional, organism-based.
For series [12], the species on record is Cavia porcellus. Put plainly: Antitussive activity against crtric acid-induced cough in Cavia porcellus (guinea pig) model assessed as increase in cough latency at 500 ug/ml for 5 min through aerosol prior to exposure of aerosolized citric acid for 10 min. Format: functional, organism-based.
The species named for series [13] is Cavia porcellus. Put plainly: Antitussive activity against crtric acid-induced cough in Cavia porcellus (guinea pig) model assessed as cough response at 125 ug/ml for 5 min through aerosol prior to exposure of aerosolized citric acid for 10 min. The format is functional, organism-based.
The species entered for series [14] is Cavia porcellus. Briefly: Antitussive activity against crtric acid-induced cough in Cavia porcellus (guinea pig) model assessed as cough latency at 125 to 250 ug/ml for 5 min through aerosol prior to exposure of aerosolized citric acid for 10 min. Format: functional, organism-based.

Consider `CC1CCC(C(C)C)C(O)C1` (stereo not given), for which the inhibition result in series [1] was “Active”. Moreover, the outcome in [2] was Active.

For `CC(C)[C@@H]1CC[C@@H](C)CC(=O)N1` [Menthol lactam], the Activity result in [3] and in series [4] was “Non-toxic” each time. Moreover, the inhibition entry in [1] is “Active”. Further, the outcome in series [5] was Active.

Regarding `CC1(C)C2CC[C@]1(C)C(=O)NC2` [Alpha-camphidone], the Activity result in series [6] and in series [7] was “Non-toxic” throughout. Also, the inhibition entry in series [8] is “Active”. For the same compound, the result in [9] was Active. For the same compound, in series [10], the result was inactive.

Consider `CC12CCC(CC1=O)C2(C)C` (stereo not given), for which the inhibition result in [11] is “Active”. Further, in [12], the result was Active. The inhibition result in [13] was “inactive”. The result in series [14] was inactive.
